Assay results taken from US11655225B2, “Antimycobacterial heterocyclic amides” (Crestone, Inc., priority 2018, dated 2023).
In brackets after ≈: the same amount, converted by molar mass.

Each compound was assayed on M. abscessus (assay: MIC determination, CLSI M24-A). Conditions: Mycobacteroides abscessus, CLSI M24-A.
Assay type: cell-based

SMILES	MIC
CC1(C(=O)Nc2nc3cc(F)cc(F)c3s2)CCCCC1 [Example 133, N-(5,7-difluoro-1,3-benzothiazol-2-yl)-1-methylcyclohexane-1-carboxamide]	2 to 32 µg/mL (≈ 6.44 to 103 µM)
CC1CCCC(C(=O)Nc2nc3c(Cl)cccc3s2)C1 (centres unmarked) [Example 167, N-(4-chloro-1,3-benzothiazol-2-yl)-3-methylcyclohexane-1-carboxamide]	2 to 32 µg/mL (≈ 6.48 to 104 µM)
CC1(C(=O)Nc2nc3ccc(OC(F)(F)F)cc3s2)CC2CC2C1 (centres unmarked) [Example 137, 3-methyl-N-[6-(trifluoromethoxy)-1,3-benzothiazol-2-yl]bicyclo[3.1.0]hexane-3-carboxamide]	2 to 32 µg/mL (≈ 5.61 to 89.8 µM)
CC1CCCC(C(=O)Nc2nc3ccc(C(F)(F)F)cc3s2)C1 (centres unmarked) [Example 127, 3-methyl-N-[6-(trifluoromethyl)-1,3-benzothiazol-2-yl]cyclohexane-1-carboxamide]	2 to 32 µg/mL (≈ 5.84 to 93.5 µM)
COc1ccc2nc(NC(=O)C3CC(C)CC(C)(C)C3)oc2c1 (centres unmarked) [Example 162, N-(6-methoxy-1,3-benzoxazol-2-yl)-3,3,5-trimethylcyclohexane-1-carboxamide]	2 to 32 µg/mL (≈ 6.32 to 101 µM)
O=C(Nc1nc2c(F)c(F)c(F)cc2s1)C1CCCCCC1 [Example 141, N-(4,5,6-trifluoro-1,3-benzothiazol-2-yl)cycloheptanecarboxamide]	2 to 32 µg/mL (≈ 6.09 to 97.5 µM)
CC12CC3CC(C)(C1)CC(C(=O)Nc1nc4cc(Cl)c(Cl)cc4[nH]1)(C3)C2 [Example 164, N-(5,6-dichloro-1H-1,3-benzodiazol-2-yl)-3,5-dimethyladamantane-1-carboxamide]	2 to 32 µg/mL (≈ 5.1 to 81.6 µM)
CC12CC3CC(C)(C1)CC(C(=O)Nc1nc4ccccc4[nH]1)(C3)C2 [Example 146, N-(1H-1,3-benzodiazol-2-yl)-3,5-dimethyladamantane-1-carboxamide]	2 to 32 µg/mL (≈ 6.18 to 98.9 µM)
CC1(C(=O)Nc2nc3ccc(OC(F)(F)F)cc3s2)CC2CCC1O2 (centres unmarked) [Example 185, 2-methyl-N-[6-(trifluoromethoxy)-1,3-benzothiazol-2-yl]-7-oxabicyclo[2.2.1]heptane-2-carboxamide]	2 to 32 µg/mL (≈ 5.37 to 85.9 µM)
O=C(Nc1nc2ccc(OC(F)F)cc2s1)C1CCCCC1 [Example 156, N-[6-(difluoromethoxy)-1,3-benzothiazol-2-yl]cyclohexanecarboxamide]	2 to 32 µg/mL (≈ 6.13 to 98 µM)
CC1(C(=O)Nc2nc3c(F)c(F)c(F)cc3s2)CCCCCC1 [Example 103, 1-methyl-N-(4,5,6-trifluoro-1,3-benzothiazol-2-yl)cycloheptane-1-carboxamide]	2 to 32 µg/mL (≈ 5.84 to 93.5 µM)
O=C(Nc1nc2ccccc2o1)C1CC2CCCC(C2)C1 (centres unmarked) [Example 159, N-(1,3-benzoxazol-2-yl)bicyclo[3.3.1]nonane-3-carboxamide]	2 to 32 µg/mL (≈ 7.03 to 113 µM)
CC12CC3CC(C)(C1)CC(C(=O)Nc1nc4cc(F)c(F)cc4[nH]1)(C3)C2 [Example 119, N-(5,6-difluoro-1H-1,3-benzodiazol-2-yl)-3,5-dimethyladamantane-1-carboxamide]	2 to 32 µg/mL (≈ 5.56 to 89 µM)
O=C(Nc1nc2ccc(OC(F)F)cc2s1)C1CCCCCCC1 [Example 108, N-[6-(difluoromethoxy)-1,3-benzothiazol-2-yl]cyclooctanecarboxamide]	2 to 32 µg/mL (≈ 5.64 to 90.3 µM)
CC1CCC(C(=O)Nc2nc3ccc(OC(F)(F)F)cc3s2)C1 (centres unmarked) [Example 102, 3-methyl-N-[6-(trifluoromethoxy)-1,3-benzothiazol-2-yl]cyclopentane-1-carboxamide]	2 to 32 µg/mL (≈ 5.81 to 92.9 µM)
CC1CCC(C(=O)Nc2nc3ccc(C(F)(F)F)cc3s2)C1 (centres unmarked) [Example 152, 3-methyl-N-[6-(trifluoromethyl)-1,3-benzothiazol-2-yl]cyclopentane-1-carboxamide]	2 to 32 µg/mL (≈ 6.09 to 97.5 µM)
COc1ccc2nc(NC(=O)C34CC5CC(C)(CC(C)(C5)C3)C4)oc2c1 [Example 145, N-(6-methoxy-1,3-benzoxazol-2-yl)-3,5-dimethyladamantane-1-carboxamide]	2 to 32 µg/mL (≈ 5.64 to 90.3 µM)
CC1CC(C(=O)Nc2nc3ccccc3o2)CC(C)(C)C1 (centres unmarked) [Example 165, N-(1,3-benzoxazol-2-yl)-3,3,5-trimethylcyclohexane-1-carboxamide]	2 to 32 µg/mL (≈ 6.98 to 112 µM)
O=C(Nc1cc2ccccc2s1)C1CCCCCC1 [Example 160, N-(1-benzothiophen-2-yl)cycloheptanecarboxamide]	2 to 32 µg/mL (≈ 7.32 to 117 µM)
CC1(C(=O)Nc2cc3ccccc3s2)CCCCC1 [Example 105, N-(1-benzothiophen-2-yl)-1-methylcyclohexane-1-carboxamide]	2 to 32 µg/mL (≈ 7.32 to 117 µM)
O=C(Nc1nc2ccc(OC(F)(F)F)cc2s1)C1CCCCC1 [Example 188, N-[6-(trifluoromethoxy)-1,3-benzothiazol-2-yl]cyclohexanecarboxamide]	2 to 32 µg/mL (≈ 5.81 to 92.9 µM)
CC1CCCC(C(=O)Nc2nc3ccccc3s2)C1 (centres unmarked) [Example 182, N-(1,3-benzothiazol-2-yl)-3-methylcyclohexane-1-carboxamide]	2 to 32 µg/mL (≈ 7.29 to 117 µM)
O=C(Nc1nc2ccccc2o1)C12CC3CC(CC(C3)C1)C2 [Example 155, N-(1,3-benzoxazol-2-yl)adamantane-1-carboxamide]	2 to 32 µg/mL (≈ 6.75 to 108 µM)

SMILES	MIC
CC1CCCC(C(=O)Nc2nc3c(F)cc(F)cc3s2)C1 (centres unmarked) [Example 169, N-(4,6-difluoro-1,3-benzothiazol-2-yl)-3-methylcyclohexane-1-carboxamide]	2 to 32 µg/mL (≈ 6.44 to 103 µM)
O=C(Nc1nc2c(F)cc(F)cc2s1)C1CCCCCCC1 [Example 109, N-(4,6-difluoro-1,3-benzothiazol-2-yl)cyclooctanecarboxamide]	2 to 32 µg/mL (≈ 6.17 to 98.6 µM)
CC1(C(=O)Nc2nc3ccc(OC(F)(F)F)cc3s2)CCCC1 [Example 136, 1-methyl-N-[6-(trifluoromethoxy)-1,3-benzothiazol-2-yl]cyclopentane-1-carboxamide]	2 to 32 µg/mL (≈ 5.81 to 92.9 µM)
CCOc1ccc2nc(NC(=O)C3CC4CCCC(C4)C3)sc2c1 (centres unmarked) [Example 138, N-(6-ethoxy-1,3-benzothiazol-2-yl)bicyclo[3.3.1]nonane-3-carboxamide]	2 to 32 µg/mL (≈ 5.81 to 92.9 µM)
COc1ccc2nc(NC(=O)C34CC5CC(C)(CC(C)(C5)C3)C4)sc2c1 [Example 124, N-(6-methoxy-1,3-benzothiazol-2-yl)-3,5-dimethyladamantane-1-carboxamide]	2 to 32 µg/mL (≈ 5.4 to 86.4 µM)
CC1CC(C(=O)Nc2nc3cc(Br)ccc3s2)CC(C)(C)C1 (centres unmarked) [Example 190, N-(5-bromo-1,3-benzothiazol-2-yl)-3,3,5-trimethylcyclohexane-1-carboxamide]	2 to 32 µg/mL (≈ 5.24 to 83.9 µM)
CC1CC(C(=O)Nc2nc3cc(F)c(F)cc3o2)CC(C)(C)C1 (centres unmarked) [Example 175, N-(5,6-difluoro-1,3-benzoxazol-2-yl)-3,3,5-trimethylcyclohexane-1-carboxamide]	2 to 32 µg/mL (≈ 6.2 to 99.3 µM)
O=C(Nc1nc2ccccc2o1)C1CCCCCCC1 [Example 187, N-(1,3-benzoxazol-2-yl)cyclooctanecarboxamide]	2 to 32 µg/mL (≈ 7.34 to 117 µM)
CC1(C(=O)Nc2nc3c(F)c(F)c(F)cc3s2)CCCCC1 [Example 154, 1-methyl-N-(4,5,6-trifluoro-1,3-benzothiazol-2-yl)cyclohexane-1-carboxamide]	2 to 32 µg/mL (≈ 6.09 to 97.5 µM)
COc1ccc2nc(NC(=O)C3CCCC(C)C3)sc2c1 (centres unmarked) [Example 181, N-(6-methoxy-1,3-benzothiazol-2-yl)-3-methylcyclohexane-1-carboxamide]	2 to 32 µg/mL (≈ 6.57 to 105 µM)
Cc1cc2nc(NC(=O)C3(C)CCCCC3)sc2c(C)c1Br [Example 106, N-(6-bromo-5,7-dimethyl-1,3-benzothiazol-2-yl)-1-methylcyclohexane-1-carboxamide]	2 to 32 µg/mL (≈ 5.24 to 83.9 µM)
CC1CC(C(=O)Nc2nc3ccc(Br)cc3o2)CC(C)(C)C1 (centres unmarked) [Example 158, N-(6-bromo-1,3-benzoxazol-2-yl)-3,3,5-trimethylcyclohexane-1-carboxamide]	2 to 32 µg/mL (≈ 5.48 to 87.6 µM)
CC1CC(C(=O)Nc2nc3cc(Cl)ccc3o2)CC(C)(C)C1 (centres unmarked) [Example 114, N-(5-chloro-1,3-benzoxazol-2-yl)-3,3,5-trimethylcyclohexane-1-carboxamide]	2 to 32 µg/mL (≈ 6.23 to 99.7 µM)
O=C(Nc1cc2ccccc2s1)C1CCCCC1 [Example 176, N-(1-benzothiophen-2-yl)cyclohexanecarboxamide]	2 to 32 µg/mL (≈ 7.71 to 123 µM)
O=C(Nc1nc2ccc(C(F)(F)F)cc2s1)C1CCC2(CC1)CC2 [Example 192, N-[6-(trifluoromethyl)-1,3-benzothiazol-2-yl]spiro[2.5]octane-6-carboxamide]	2 to 32 µg/mL (≈ 5.64 to 90.3 µM)
Cc1cc(C)c2oc(NC(=O)C34CC5CC(C)(CC(C)(C5)C3)C4)nc2c1 [Example 161, N-(5,7-dimethyl-1,3-benzoxazol-2-yl)-3,5-dimethyladamantane-1-carboxamide]	2 to 32 µg/mL (≈ 5.67 to 90.8 µM)
O=C(Nc1nc2ccccc2o1)C1C2CC3CC(C2)CC1C3 (centres unmarked) [Example 131, N-(1,3-benzoxazol-2-yl)adamantane-2-carboxamide]	2 to 32 µg/mL (≈ 6.75 to 108 µM)
Cc1cccc2sc(NC(=O)C3CC4CCC3C4)nc12 (centres unmarked) [Example 183, N-(4-methyl-1,3-benzothiazol-2-yl)bicyclo[2.2.1]heptane-2-carboxamide]	2 to 32 µg/mL (≈ 6.98 to 112 µM)
O=C(Nc1nc2c(F)cc(F)cc2s1)C1CCCCC1 [Example 157, N-(4,6-difluoro-1,3-benzothiazol-2-yl)cyclohexanecarboxamide]	2 to 32 µg/mL (≈ 6.75 to 108 µM)
CC12CC3CC(C)(C1)CC(C(=O)Nc1nc4ccc(Br)cc4o1)(C3)C2 [Example 115, N-(6-bromo-1,3-benzoxazol-2-yl)-3,5-dimethyladamantane-1-carboxamide]	2 to 32 µg/mL (≈ 4.96 to 79.3 µM)
CC1(C(=O)Nc2nc3ccc(C(F)(F)F)cc3s2)CCCC1 [Example 128, 1-methyl-N-[6-(trifluoromethyl)-1,3-benzothiazol-2-yl]cyclopentane-1-carboxamide]	2 to 32 µg/mL (≈ 6.09 to 97.5 µM)
CC1CC(C(=O)Nc2nc3ccc(C(F)(F)F)cc3o2)CC(C)(C)C1 (centres unmarked) [Example 163, 3,3,5-trimethyl-N-[6-(trifluoromethyl)-1,3-benzoxazol-2-yl]cyclohexane-1-carboxamide]	2 to 32 µg/mL (≈ 5.64 to 90.3 µM)

These compounds were tested on azithromycin-, doxycycline, and sulfamethoxazole-resistant M. abscessus (assay: MIC against drug-resistant strains). Conditions: Mycobacteroides abscessus; clinically relevant resistant strains, M. abscessus; range over compounds and strains.
Assay type: cell-based

SMILES	MIC
CC1CC(C(=O)Nc2nc3ccc(OC(F)(F)F)cc3s2)CC(C)(C)C1 (centres unmarked) [Example 46, 3,3,5-trimethyl-N-[6-(trifluoromethoxy)-1,3-benzothiazol-2-yl]cyclohexane-1-carboxamide]	0.03 to 4 µg/mL (≈ 0.0776 to 10.4 µM)

Same assay, conditions: azithromycin-, doxycycline, and sulfamethoxazole-resistant M. abscessus

SMILES	activity against resistant strains
CC1CC(C(=O)Nc2nc3ccc(OC(F)(F)F)cc3s2)CC(C)(C)C1 (centres unmarked) [Example 46, 3,3,5-trimethyl-N-[6-(trifluoromethoxy)-1,3-benzothiazol-2-yl]cyclohexane-1-carboxamide]	active
